Paper PMC9433906, “Evaluation of the biotechnological potential of peptide Cupiennin 1a and analogs” (Frontiers in Microbiology, 2022)
≈ marks a conversion by molar mass, not a printed value. Where a SMILES comes first, the peptide text is derived from it.

Experiments:
[1] = tested on: K. pneumoniae (ATCC 13883); assay type: cell-based, Klebsiella pneumoniae; conditions: K. pneumoniae (ATCC13883); 5×10^5 CFU.ml^−1, Mueller-Hinton Broth, 37°C, 24 h, OD 595 nm, biological triplicates
Method: (§1) Susceptibility tests were performed using clinical isolates of Klebsiella pneumoniae carbapenemase (KPC 1410503) and methicillin-resistant S. aureus (MRSA 3730592). Tests were also performed with ATCC (American Type Culture Collection) isolates of K. pneumoniae (ATCC 13883) and S. aureus (ATCC 25923).
(§2) Two multidrug-resistant clinical isolates and two ATCC isolates were chosen to perform microbial susceptibility testing as models for studies with bacteria susceptible to antimicrobials found in the Gram-Positive and Gram-Negative groups of bacteria.
(§3) The broth microdilution method was performed according to the Clinical and Laboratory Standards Institute (CLSI) M07-A10 protocol to determine the Minimum Inhibitory Concentration (MIC; [Clinical Laboratory Standards Institute, 2015]). The assay was performed on 96-well microplates (TPP, United States), containing 5×10^5 CFU.ml^−1 of each tested bacterium per well and different peptide micromolar concentrations (Table 1) in a final volume of 100 μl of Mueller-Hinton Broth (MH). Negative control was represented by bacteria incubated in MH medium, while positive control was represented by culture incubated in MH medium with Amikacin. Plates were kept under agitation at 37°C in a BioTek spectrophotometer (PowerWaveTM HT Microplate Reader) with optical density (OD) readings at 595 nm every 30 min for 24 h. Inhibition results were analyzed using GraphPad Prism 8 software by comparing the OD from negative control wells (100%) to those containing peptides. All tests were performed in biological triplicates.

[2] = tested on: C. parapsilosis (ATCC22019); assay: Broth microdilution MIC (CLSI M27-A3 with modifications); assay type: cell-based, Candida parapsilosis; conditions: 2.5 × 10^3 CFU.ml^−1, Sabouraud medium, 24 h at 30°C, absorbance 595 nm
Method: The broth microdilution method was performed according to the Clinical and Laboratory Standards Institute Guideline M27-A3 with modifications to determine the Minimum Inhibitory Concentration (MIC; [Clinical Laboratory Standards Institute, 2008]).
Initially, the fungus C. parapsilosis (ATCC22019) was grown in a Petri dish containing Sabouraud Dextrose Agar medium (Dextrose 40 g/L; Peptic digestion of animal tissue 5.0 g.L^−1; and Agar 15 g.L^−1) for 48 h. Subsequently, a pre-inoculum was performed from a yeast colony that was placed in 10 ml of liquid Sabouraud medium and incubated for 16 h at 28°C, with a constant rotation of 200 rpm. After the incubation period, 2.5 × 10^3 CFU.ml^−1 of fungus per well was incubated with different peptide micromolar concentrations (Table 1) to assess the MIC for each peptide.
Fungal cells incubated with Sabouraud medium were used as negative control, while positive control was represented by fungal cells incubated in Sabouraud medium and amphotericin B (10 μM). Subsequently, plates were incubated for 24 h at 30°C. After this period, the absorbance was read (595 nm) in a BioTek spectrophotometer (PowerWaveTM HT Microplate Reader), and data of antifungal activity with percentage of inhibition of peptides were plotted in GraphPad Prism 8 Software.

[3] = tested on: Human fibroblast (Hfib) cells; assay: MTT cytotoxicity test against human fibroblasts (Hfib); assay type: cell-based; conditions: 24 h; for cytotoxicity against Hfib cells at the other concentrations (in words): concentrations other than the highest
Method: Human fibroblast (Hfib) cell cultures were cultivated in Dulbecco’s Modified Eagle Medium (DMEM; Sigma-Aldrich, United States) supplemented with 10% fetal bovine serum (Sigma-Aldrich). Hfib were cultured in a humidified incubator containing 5% CO2 at 37°C and 95% humidity.
Hfib cell line was seeded onto 96-well plates (1 × 10^3 cells/well, 100 μl) before treatment and allowed to adhere and grow over the 24 h period. Each peptide was subsequently added at different micromolar concentrations. The results were evaluated using GraphPad Prism 8 software, where a One-Way ANOVA statistical test followed by Bonferroni’s multiple comparisons test was performed.
Cell viability analyses were performed in technical and biological replicates, and readings were obtained after 24 h of contact with peptides. At the end of the incubation period, MTT (Sigma-Aldrich, United States) was used to assess the ability of living cells to reduce salt 3-[4,5-dimethylthiazole-2-yl]-2,5-diphenyltetrazolium bromide for formazan production. Plates were read at 570 ηm ([Mosmann, 1983]) and results were expressed in the percentage of living cells. The results were analyzed using GraphPad Prism 8 software where a One-Way ANOVA statistical test was followed by Bonferroni’s multiple comparisons test.

[4] = tested on: Klebsiella pneumoniae carbapenemase (KPC 1410503); assay type: cell-based; conditions: K. pneumoniae carbapenemase—KPC clinical isolate 1410503; 5×10^5 CFU.ml^−1, Mueller-Hinton Broth, 37°C, 24 h, OD 595 nm, biological triplicates; NE = MIC value not found
Method: as §1, §2, §3

Row | SMILES | Minimum inhibitory concentration (MIC) [1] [µM] | Minimum inhibitory concentration (MIC) [2] [µM] | cytotoxic effect on Hfib cells (in words) ([3]; all concentrations tested) | Minimum inhibitory concentration (MIC) [4] [µM] | Hfib cells killed at the highest concentration ([3]; 68.3 (highest concentration)) [%] | cytotoxicity against Hfib cells at the other concentrations (in words) [3] | activity on Hfib cells, reducing the cell viability (in words) ([3]; 35.4 μM) | Hfib cells eradicated ([3]; 70.8 μM) [%] | Hfib cells killed at the highest concentration ([3]; 70.43 (highest concentration)) [%]
1 | CC(C)C[C@H](NC(=O)[C@H](C)NC(=O)CNC(=O)[C@H](Cc1ccccc1)NC(=O)CN)C(=O)N[C@@H](Cc1ccccc1)C(=O)N[C@@H](CCCCN)C(=O)N[C@@H](CCCNC(=N)N)C(=O)N[C@@H](CC(C)C)C(=O)N[C@@H](C)C(=O)N[C@@H](CCCCN)C(=O)N[C@@H](CCCCN)C(=O)N[C@H](C(=O)N[C@@H](C)C(=O)N[C@@H](CCCCN)C(=O)N[C@H](C(=O)N[C@H](C(=O)N[C@@H](C)C(N)=O)C(C)C)[C@@H](C)O)C(C)C [Peptide R3b] (H-GFGALFKRLAKKVAKTVA-NH2) | 67.21 (≈ 128 µg/mL) | 33.60 (≈ 64 µg/mL) | did not show any cytotoxic effect | – | – | – | – | – | –
2 | CC(C)C[C@H](NC(=O)[C@H](CCCNC(=N)N)NC(=O)[C@H](CCCCN)NC(=O)[C@H](Cc1ccccc1)NC(=O)[C@H](CC(C)C)NC(=O)[C@H](CCCCN)NC(=O)CNC(=O)[C@H](Cc1ccccc1)NC(=O)CN)C(=O)N[C@@H](C)C(=O)N[C@@H](CCCCN)C(=O)N[C@@H](C)C(=O)N[C@H](C(=O)N[C@@H](C)C(=O)N[C@@H](CCCCN)C(=O)N[C@@H](C)C(=O)N[C@H](C(=O)N[C@@H](C)C(N)=O)C(C)C)C(C)C [Peptide R10b] (H-GFGKLFKRLAKAVAKAVA-NH2) | 17.07 (≈ 32 µg/mL) | 34.15 (≈ 64 µg/mL) | – | 17.07 (≈ 32 µg/mL) | 100 | not harmful | – | – | –
3 | CC(C)C[C@H](NC(=O)[C@H](C)NC(=O)CNC(=O)[C@H](Cc1ccccc1)NC(=O)CN)C(=O)N[C@@H](Cc1ccccc1)C(=O)N[C@@H](CCCCN)C(=O)N[C@@H](Cc1ccccc1)C(=O)N[C@@H](CC(C)C)C(=O)N[C@@H](C)C(=O)N[C@@H](CCCCN)C(=O)N[C@@H](C)C(=O)N[C@H](C(=O)N[C@@H](C)C(=O)N[C@@H](CCCCN)C(=O)N[C@@H](C)C(=O)N[C@H](C(=O)N[C@@H](C)C(N)=O)C(C)C)C(C)C [Peptide R6b] (H-GFGALFKFLAKAVAKAVA-NH2) | 35.4 (≈ 64 µg/mL) | 70.8 (≈ 128 µg/mL) | – | – | – | – | slight activity | 100 | –
4 | CC(C)C[C@H](NC(=O)[C@H](C)NC(=O)CNC(=O)[C@H](Cc1ccccc1)NC(=O)CN)C(=O)N[C@@H](Cc1ccccc1)C(=O)N[C@@H](CCCCN)C(=O)N[C@@H](CCCNC(=N)N)C(=O)N[C@@H](CC(C)C)C(=O)N[C@@H](C)C(=O)N[C@@H](CCCCN)C(=O)N[C@@H](C)C(=O)N[C@H](C(=O)N[C@@H](C)C(=O)N[C@@H](CCCCN)C(=O)N[C@@H](C)C(=O)N[C@H](C(=O)N[C@@H](C)C(N)=O)C(C)C)C(C)C [Peptide R8b] (H-GFGALFKRLAKAVAKAVA-NH2) | 17.60 (≈ 32 µg/mL) | 35.21 (≈ 64 µg/mL) | – | 35.21 (≈ 64 µg/mL) | – | not harmful | – | – | 100
